For experiment [1], the target named is T1, Parathyroid hormone/parathyroid hormone-related peptide receptor (Homo sapiens) (UniProt Q03431).
T1 sequence (whole entry): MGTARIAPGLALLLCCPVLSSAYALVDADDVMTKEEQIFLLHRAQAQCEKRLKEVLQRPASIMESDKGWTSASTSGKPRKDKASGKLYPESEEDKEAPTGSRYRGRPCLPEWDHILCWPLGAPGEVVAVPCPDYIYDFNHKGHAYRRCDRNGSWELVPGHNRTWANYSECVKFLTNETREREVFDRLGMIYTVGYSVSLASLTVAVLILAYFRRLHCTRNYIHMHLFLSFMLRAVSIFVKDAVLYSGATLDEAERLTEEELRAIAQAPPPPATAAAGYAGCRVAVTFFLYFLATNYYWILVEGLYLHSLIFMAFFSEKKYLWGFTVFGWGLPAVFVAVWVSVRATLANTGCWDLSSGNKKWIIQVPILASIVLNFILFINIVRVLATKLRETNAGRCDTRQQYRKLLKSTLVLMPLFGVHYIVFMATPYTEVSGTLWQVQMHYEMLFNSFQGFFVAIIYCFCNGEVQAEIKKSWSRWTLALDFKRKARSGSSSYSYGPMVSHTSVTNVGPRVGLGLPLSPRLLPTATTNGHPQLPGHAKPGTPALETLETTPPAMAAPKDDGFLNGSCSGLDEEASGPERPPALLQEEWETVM
The experiment is described as follows: Agonist activity at human PTH1 receptor expressed in human GP2.3 cells assessed as induction of cAMP after 12 to 20 mins by luciferase reporter gene assay relative to PTH(1 to 34 residues)-NH2. In kind it is functional, cell-based. On the technique in general: A reporter such as luciferase makes a cellular process visible.

Experiment [2] has as its target T2, Parathyroid hormone/parathyroid hormone-related peptide receptor (Homo sapiens, UniProt Q03431).
T2 sequence (Q03431 whole entry): T1 sequence (whole entry)
The experiment is described as follows: Agonist activity at human PTH1 receptor expressed in human GP2.3 cells assessed as induction of cAMP after 12 to 20 mins by luciferase reporter gene assay. In kind it is functional, cell-based. To be noted: read-out: EC50.

The source of these data is ChEMBL document CHEMBL4024754, “Development of Potent, Protease-Resistant Agonists of the Parathyroid Hormone Receptor with Broad β Residue Distribution” (J Med Chem, 2017).

pEC50: −log10 of the molar value. Numbered stars: 1 amine (or outer) side, 2 acyl side, 3 side chain; on linkers, the order of the positions; unused ones are H or OH. Square brackets hold non-standard residues; d marks the D form. Peptide text beside a SMILES is read from it. * marks the point of attachment. NH(1S,2S-2-CONH2-cPent) = NC(=O)[C@H]1CCC[C@@H]1N*; β3hW = N[C@H](CC(=O)O)Cc1c[nH]c2ccccc12; ACPC(1S,2S) = N[C@H]1CCC[C@@H]1C(=O)*; X1 = O=C([C@H]1CCC[C@@H]1N[*:1])[*:2]; X2 = O=C([C@H]1CNC[C@@H]1N[*:1])[*:2]; hArg = N=C(N)NCCCC[C@H](N)C(=O)O; β3hE = N[C@@H](CCC(=O)O)CC(=O)O; β3hF = N[C@H](CC(=O)O)Cc1ccccc1; β3hK = NCCCC[C@H](N)CC(=O)O; β3hM = CSCC[C@H](N)CC(=O)O; β3hD = NC(CC(=O)O)CC(=O)O; Aib = CC(C)(N)C(=O)O

Turning to `CC[C@H](C)[C@H](NC(=O)C[C@H](CO)NC(=O)[C@H](CCCCN)NC(=O)CNC(=O)[C@H](CCCCN)NC(=O)[C@H](CC(=O)O)NC(=O)[C@H](Cc1cnc[nH]1)NC(=O)[C@H](CC(C)C)NC(=O)[C@H](CC(C)C)NC(=O)[C@H](CCC(N)=O)NC(=O)[C@H](Cc1cnc[nH]1)NC(=O)[C@H](CCC(=O)O)NC(=O)[C@H](CO)NC(=O)[C@@H](NC(=O)[C@H](C)N)C(C)C)C(=O)N[C@@H](CCC(N)=O)C(=O)N[C@@H](CC(=O)O)C(=O)N[C@H](CC(=O)N[C@@H](CCCNC(=N)N)C(=O)N[C@@H](CCCNC(=N)N)C(=O)N[C@@H](CCCNC(=N)N)C(=O)N[C@@H](CCC(=O)O)CC(=O)N[C@@H](CC(C)C)C(=O)N[C@@H](CC(C)C)C(=O)N[C@@H](CCC(=O)O)C(=O)N[C@@H](CCCCN)CC(=O)N[C@@H](CC(C)C)C(=O)N[C@@H](CC(C)C)C(=O)NC(C)(C)C(=O)N[C@@H](CCCCN)CC(=O)N[C@@H](CC(C)C)C(=O)N[C@@H](Cc1cnc[nH]1)C(=O)N[C@H](C(=O)N[C@@H](C)CC(N)=O)[C@@H](C)O)CC(C)C`, the fold change (FC) in experiment [1] came out at 60.4.

One may read the pEC50 as the EC50 on a negative log10 scale, so that one unit is a factor of ten. For the compound `CC[C@H](C)[C@H](NC(=O)[C@H](CCC(=O)O)NC(=O)C(C)(C)NC(=O)[C@@H](NC(=O)[C@H]1CCC[C@@H]1N)C(C)C)C(=O)N[C@@H](CCC(N)=O)C(=O)N[C@H]1CCC[C@@H]1C(=O)N[C@@H](CCSC)C(=O)N[C@@H](Cc1cnc[nH]1)C(=O)N[C@@H](CCC(N)=O)C(=O)N[C@@H](CCCCNC(=N)N)C(=O)N[C@@H](C)C(=O)N[C@@H](CCCCN)C(=O)N[C@@H](Cc1c[nH]c2ccccc12)C(=O)N[C@@H](CC(C)C)C(=O)N[C@@H](CC(N)=O)C(=O)N[C@@H](CO)C(=O)N[C@@H](CCSC)C(=O)N[C@@H](CCCNC(=N)N)C(=O)N[C@@H](CCCNC(=N)N)C(=O)N[C@H](C(=O)N[C@@H](CCC(=O)O)C(=O)N[C@@H](Cc1c[nH]c2ccccc12)C(=O)N[C@@H](CC(C)C)C(=O)N[C@@H](CCCNC(=N)N)C(=O)N[C@@H](CCCCN)C(=O)N[C@@H](CCCCN)C(=O)N[C@@H](CC(C)C)C(=O)N[C@@H](CCC(N)=O)C(=O)N[C@@H](CC(=O)O)C(=O)N[C@H](C(=O)N[C@@H](Cc1cnc[nH]1)C(=O)N[C@@H](CC(N)=O)C(=O)N[C@@H](Cc1ccccc1)C(N)=O)C(C)C)C(C)C` ({ACPC(1S,2S)}-V[Aib]EIQ[X1]MHQ[hArg]AKWLNSMRRVEWLRKKLQDVHNF-NH2), the pEC50 in experiment [2] is 9.28. In experiment [1], the fold change (FC) was determined as 6.3.

As for `CC[C@H](C)[C@H](NC(=O)[C@H](CCC(=O)O)NC(=O)[C@H](C)NC(=O)[C@@H](NC(=O)[C@H](C)N)C(C)C)C(=O)N[C@@H](CCC(N)=O)C(=O)N[C@@H](CC(C)C)C(=O)N[C@@H](CCSC)C(=O)N[C@@H](Cc1cnc[nH]1)C(=O)N[C@@H](CCC(N)=O)C(=O)N[C@@H](CCCCNC(=N)N)C(=O)N[C@@H](C)C(=O)N[C@@H](CCCCN)C(=O)N[C@H](CC(=O)N[C@@H](CC(C)C)C(=O)N[C@@H](CC(N)=O)C(=O)N[C@@H](CO)C(=O)N[C@@H](CCSC)CC(=O)N[C@@H](CCCNC(=N)N)C(=O)N[C@@H](CCCNC(=N)N)C(=O)N[C@H](C(=O)N[C@@H](CCC(=O)O)CC(=O)N[C@@H](Cc1c[nH]c2ccccc12)C(=O)N[C@@H](CC(C)C)C(=O)N[C@@H](CCCNC(=N)N)C(=O)N[C@@H](CCCCN)CC(=O)N[C@@H](CCCCN)C(=O)N[C@@H](CC(C)C)C(=O)N[C@@H](CCC(N)=O)C(=O)N[C@@H](CC(=O)O)CC(=O)N[C@H](C(=O)N[C@@H](Cc1cnc[nH]1)C(=O)N[C@@H](CC(N)=O)C(=O)N[C@H](CC(N)=O)Cc1ccccc1)C(C)C)C(C)C)Cc1c[nH]c2ccccc12` (H-AVAEIQLMHQ[hArg]AK[β3hW]LNS[β3hM]RRV[β3hE]WLR[β3hK]KLQ[β3hD]VHN[β3hF]-NH2), the pEC50 in experiment [2] was 9.36. Also, in experiment [1], the fold change (FC) was found to be 5.4.

`CSCC[C@H](NC(=O)[C@H]1CCC[C@@H]1NC(=O)[C@H](CCC(N)=O)NC(=O)[C@H]1CCC[C@@H]1NC(=O)[C@H](CCC(=O)O)NC(=O)[C@H](CO)NC(=O)[C@@H](NC(=O)[C@H]1CCC[C@@H]1N)C(C)C)C(=O)N[C@@H](Cc1cnc[nH]1)C(=O)N[C@@H](CC(N)=O)C(=O)N[C@@H](CC(C)C)C(=O)NCC(=O)N[C@@H](CCCCN)C(=O)N[C@H]1CCC[C@@H]1C(=O)N[C@@H](CC(C)C)C(=O)N[C@@H](CC(N)=O)C(=O)N[C@@H](CO)C(=O)N[C@H]1CCC[C@@H]1C(=O)N[C@@H](CCC(=O)O)C(=O)N[C@@H](CCCNC(=N)N)C(=O)N[C@H](C(=O)N[C@H]1CNC[C@@H]1C(=O)N[C@@H](Cc1c[nH]c2ccccc12)C(=O)N[C@@H](CC(C)C)C(=O)N[C@@H](CCCNC(=N)N)C(=O)N[C@H]1CNC[C@@H]1C(=O)N[C@@H](CCCCN)C(=O)N[C@@H](CC(C)C)C(=O)N[C@@H](CCC(N)=O)C(=O)N[C@H]1CCC[C@@H]1C(=O)N[C@H](C(=O)N[C@@H](Cc1cnc[nH]1)C(=O)N[C@@H](CC(N)=O)C(=O)N[C@H]1CCC[C@@H]1C(N)=O)C(C)C)C(C)C` ({ACPC(1S,2S)}-VSE[X1]Q[X1]MHNLGK[X1]LNS[X1]ERV[X2]WLR[X2]KLQ[X1]VHN-{NH(1S,2S-2-CONH2-cPent)}): in experiment [1], the fold change (FC) was 234.

For the compound `CC[C@H](C)[C@H](NC(=O)[C@H]1CCC[C@@H]1NC(=O)[C@H](C)NC(=O)[C@H](NC(=O)[C@H](CC(C)C)NC(=O)[C@H]1CNC[C@@H]1NC(=O)[C@H](Cc1cnc[nH]1)NC(=O)[C@H](CC(C)C)NC(=O)[C@H](Cc1ccccc1)NC(=O)[C@H]1CNC[C@@H]1NC(=O)[C@H](CCCNC(=N)N)NC(=O)[C@H](CCCNC(=N)N)NC(=O)[C@H](CCCNC(=N)N)NC(=O)[C@H]1CCC[C@@H]1NC(=O)[C@H](CC(=O)O)NC(=O)[C@H](CCC(N)=O)NC(=O)[C@@H](NC(=O)[C@H]1CCC[C@@H]1NC(=O)[C@H](CCCCN)NC(=O)CNC(=O)[C@H](CCCCN)NC(=O)[C@H](CC(=O)O)NC(=O)[C@H](Cc1cnc[nH]1)NC(=O)[C@H](CC(C)C)NC(=O)[C@H](CC(C)C)NC(=O)[C@H](CCC(N)=O)NC(=O)[C@H](Cc1cnc[nH]1)NC(=O)[C@H](CCC(=O)O)NC(=O)[C@H](CO)NC(=O)[C@@H](NC(=O)[C@H](C)N)C(C)C)[C@@H](C)CC)[C@@H](C)CC)C(=O)N[C@@H](Cc1cnc[nH]1)C(=O)N[C@H](C(=O)N[C@H]1CCC[C@@H]1C(N)=O)[C@@H](C)O`, in experiment [1], the fold change (FC) was found to be 9.4.

In the case of `CC[C@H](C)[C@H](NC(=O)[C@H]1CCC[C@@H]1NC(=O)[C@H](CCCCN)NC(=O)CNC(=O)[C@H](CCCCN)NC(=O)[C@H](CC(=O)O)NC(=O)[C@H](Cc1cnc[nH]1)NC(=O)[C@H](CC(C)C)NC(=O)[C@H](CC(C)C)NC(=O)[C@H](CCC(N)=O)NC(=O)[C@H](Cc1cnc[nH]1)NC(=O)[C@H](CCC(=O)O)NC(=O)[C@H](CO)NC(=O)[C@@H](NC(=O)[C@H](C)N)C(C)C)C(=O)N[C@@H](CCC(N)=O)C(=O)N[C@@H](CC(=O)O)C(=O)N[C@H]1CCC[C@@H]1C(=O)N[C@@H](CCCNC(=N)N)C(=O)N[C@@H](CCCNC(=N)N)C(=O)N[C@@H](CCCNC(=N)N)C(=O)N[C@H]1CNC[C@@H]1C(=O)N[C@@H](CC(C)C)C(=O)N[C@@H](CC(C)C)C(=O)N[C@@H](CCC(=O)O)C(=O)N[C@H]1CNC[C@@H]1C(=O)N[C@@H](CC(C)C)C(=O)N[C@@H](CC(C)C)C(=O)NC(C)(C)C(=O)N[C@H]1CCC[C@@H]1C(=O)N[C@@H](CC(C)C)C(=O)N[C@@H](Cc1cnc[nH]1)C(=O)N[C@H](C(=O)N[C@H]1CCC[C@@H]1C(N)=O)[C@@H](C)O` (H-AVSEHQLLHDKGK[X1]IQD[X1]RRR[X2]LLE[X2]LL[Aib][X1]LHT-{NH(1S,2S-2-CONH2-cPent)}), in experiment [1], the fold change (FC) is 2.6.
